#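 48-hour exposure; five concentrations; linearly interpolated endpoints. Here, GI50 denotes the concentration required for 50% inhibition of growth. Definition used: TGI = concentration required for complete inhibition of growth.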
# Legend:
# Assay in all cases: NCI tumour cell line growth inhibition, 48 h
# [1] = tested on: SR leukemia
# [2] = tested on: SF-295 CNS
# [3] = tested on: UACC-257 melanoma
# [4] = tested on: SK-MEL-28 melanoma
# [5] = tested on: UACC-62 melanoma
# [6] = tested on: MCF7 breast
# [7] = tested on: COLO 205 colon
# [8] = tested on: OVCAR-4 ovarian
# [9] = tested on: CAKI-1 renal
# [10] = tested on: HL-60(TB) leukemia
structure (smiles),measurement,setting,value
Clc1ccc(C2CC(c3cccc(Nc4ccncc4)c3)=NN2c2cc(Cl)cc(Cl)c2)cc1 (stereo not given),GI50,[1],1860 nM
same,TGI,[1],4650 nM
same,GI50,[2],1760 nM
same,TGI,[2],3230 nM
same,GI50,[3],2120 nM
same,TGI,[3],4420 nM
same,GI50,[4],1760 nM
same,TGI,[4],3390 nM
same,GI50,[5],1770 nM
same,TGI,[5],3290 nM
same,GI50,[6],2050 nM
same,TGI,[6],4730 nM
same,GI50,[7],2140 nM
same,TGI,[7],4620 nM
same,GI50,[8],1800 nM
same,TGI,[8],3390 nM
same,GI50,[9],1610 nM
same,TGI,[9],3130 nM
same,GI50,[10],2200 nM
same,TGI,[10],5050 nM

# — PubChem BioAssay (NCI)
